Experimental data from ChEMBL document CHEMBL3352677, “Thiazolidine-2,4-diones as multi-targeted scaffold in medicinal chemistry: Potential anticancer agents” (2014).
Converted amounts (≈) assume the structure as drawn.

Test system: Artemia
Test: Cytotoxicity in brine shrimps larvae assessed as mortality after 24 hrs
Assay type: functional
Settings: read-out: ED50 (the source's name)

`O=C1NC(=O)/C(=C/c2ccc(/C=C/C(=O)c3ccc(F)cc3)cc2)S1` was tested. Which EC50 did it give?
The EC50 was 4 µg/mL (≈ 11.3 µM).

With `O=C1NC(=O)/C(=C/c2ccc(/C=C/C(=O)c3cccc(F)c3)cc2)S1` as the compound, how does the EC50 read?
Its EC50 is 4 µg/mL (≈ 11.3 µM).

How did the EC50 turn out when `COc1cc([C@@H]2c3cc4c(cc3[C@H](O)[C@H]3COC(=O)[C@H]23)OCO4)cc(OC)c1OC` [PODOFILOX] was run?
The EC50 was 3.61 µg/mL (≈ 8.71 µM).

With `O=C1NC(=O)/C(=C/c2ccc(/C=C/C(=O)c3cccs3)cc2)S1` as the compound, how does the EC50 read?
Its EC50 is 4 µg/mL (≈ 11.7 µM).
